Here are results for eleven compounds from ChEMBL document CHEMBL1201862, “PubChem BioAssay data set” (2004).

Test systems include HOP-92; SNB-19; HT-29; EKVX; UACC-62; SF-295; MDA-MB-435; OVCAR-8; SK-MEL-28; SK-MEL-5; 786-0; KM12; NCI-H23; RXF 393; RPMI-8226; SNB-75; SW-620; T47D; NCI-H522; OVCAR-3.
Test in all cases: NCI anticancer screen, dose series, 48 h

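Cultured in 96-well plates, cells were exposed to test compound for 48 hours across five concentrations. Abbreviation: GI50, concentration required for 50% inhibition of growth.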 The source made the active and inactive calls. Cut-off read from the data, not from the text of the source: active = GI50 up to about 1.1 µM and inactive = higher.

Consider `CN1c2ccccc2C(=O)NC12CCN(Cc1ccccc1)CC2`, for which the GI50 was 18.3 µM (inactive) with HOP-92; 27.5 µM (inactive) in the test on SNB-19; 27.6 µM (inactive) in the test on HT-29; 42.2 µM (inactive) in the test on EKVX; 86.5 µM (inactive) in the test on UACC-62; 32 µM (inactive) in the test on SF-295. Moreover, the GI50 in the test with MDA-MB-435 is 63.1 µM (inactive); in the test on OVCAR-8 it was 69.2 µM (inactive); in the test on SK-MEL-28, 73.8 µM (inactive); in the test with SK-MEL-5 it was 54.8 µM (inactive); in the test with 786-0, 62.4 µM (inactive); with KM12, 46 µM (inactive). Also, the GI50 in the test on NCI-H23 is > 100 µM (inactive); in the test on RXF 393, > 100 µM (inactive); in the test on RPMI-8226, 47.2 µM (inactive); in the test with SNB-75 it was 75 µM (inactive); in the test with SW-620, 55.3 µM (inactive); with T47D, 70.3 µM (inactive).
As for `O=[N+]([O-])C(/C=C(\Cl)n1nnc2ccccc21)=C(/Cl)n1nnc2ccccc21`, the GI50 with HOP-92, in the test with SNB-19, in the test on HT-29, in the test with EKVX, in the test with UACC-62 and in the test with SF-295 was > 100 µM (inactive) each time. The GI50 in the test on MDA-MB-435, in the test on SK-MEL-28, in the test with SK-MEL-5, with 786-0, in the test on KM12 and in the test with NCI-H522 was > 100 µM (inactive) in each case. For the same compound, the GI50 with OVCAR-3, with NCI-H23, in the test with RXF 393, in the test on RPMI-8226 and in the test with T47D was > 100 µM (inactive) each time.
`CSc1nc(C#N)c(N)n1C`: the GI50 in the test on HOP-92, in the test with SNB-19, in the test with EKVX, in the test with UACC-62, in the test on SF-295 and with MDA-MB-435 was > 100 µM (inactive) in each case. The GI50 in the test with OVCAR-8, in the test with SK-MEL-28, in the test on SK-MEL-5, with 786-0, with KM12 and with NCI-H522 was > 100 µM (inactive) in each case. The GI50 with OVCAR-3, in the test on NCI-H23, in the test with RXF 393, in the test with RPMI-8226, in the test with SW-620 and with T47D was > 100 µM (inactive) in each case.
As for `OC(c1cc2ccccc2[nH]1)C1(c2cccnc2)SCCCS1` (centres undefined), the GI50 in the test on HOP-92 was > 100 µM (inactive); in the test on SNB-19, > 100 µM (inactive); in the test on HT-29 it was 33 µM (inactive); with EKVX, 21.2 µM (inactive); in the test with UACC-62 it was 50.9 µM (inactive); in the test on SF-295, 68.5 µM (inactive). Further, the GI50 in the test with MDA-MB-435 is 33.6 µM (inactive); with OVCAR-8, 63.8 µM (inactive); with SK-MEL-28 it was > 100 µM (inactive); with SK-MEL-5, 43.6 µM (inactive); with 786-0, 97.3 µM (inactive); in the test with KM12, 26.7 µM (inactive). Besides, the GI50 was 38.5 µM (inactive) with NCI-H522; 35.6 µM (inactive) with NCI-H23; 31.8 µM (inactive) in the test on RXF 393; 73.6 µM (inactive) in the test with SNB-75; 90.6 µM (inactive) in the test on SW-620; 69.7 µM (inactive) with T47D.
As for `COC(=O)[C@]12CCC(=O)N1[C@H](C(=O)O)Cc1c2[nH]c2ccccc12`, the GI50 in the test on HOP-92, with SNB-19, in the test with HT-29, in the test on EKVX, in the test with UACC-62 and in the test on SF-295 was > 100 µM (inactive) in each case. Further, the GI50 with MDA-MB-435, in the test with OVCAR-8, with SK-MEL-28, in the test on SK-MEL-5, in the test on 786-0 and in the test on KM12 was > 100 µM (inactive) throughout. Besides, the GI50 in the test with NCI-H522, with OVCAR-3, with NCI-H23, with RXF 393, in the test on SNB-75 and in the test with SW-620 was > 100 µM (inactive) each time. The GI50 in the test on T47D is > 100 µM (inactive).
As to `COc1cc(CNC(=S)CCCCCCCCCCC(C)C)ccc1O`, the GI50 in the test on HOP-92 is 24.2 µM (inactive); in the test with SNB-19, 72.6 µM (inactive); with HT-29, 36.7 µM (inactive); in the test on EKVX, 62.8 µM (inactive); in the test on UACC-62 it was 34.4 µM (inactive); in the test with SF-295 it was 43.7 µM (inactive). Also, the GI50 in the test on MDA-MB-435 is 41.9 µM (inactive); in the test on OVCAR-8, 49 µM (inactive); in the test on SK-MEL-28, > 100 µM (inactive); in the test with SK-MEL-5, 36.2 µM (inactive); in the test with 786-0 it was 63.5 µM (inactive); with KM12, 28.4 µM (inactive). Also, the GI50 with NCI-H23 was 28.7 µM (inactive); with RXF 393, > 100 µM (inactive); in the test with RPMI-8226 it was 37.2 µM (inactive); in the test on SNB-75 it was > 100 µM (inactive); in the test on SW-620, > 100 µM (inactive); in the test with T47D it was 27 µM (inactive).
On to `C#C[C@]1(O)CC[C@H]2[C@@H]3CCC4=C/C(=N/OC(=O)c5cccc6cc7ccccc7nc56)CC[C@@H]4[C@H]3CC[C@@]21CC`, for which the GI50 in the test on HOP-92, in the test with SNB-19, with HT-29, in the test on UACC-62, with MDA-MB-435 and with OVCAR-8 was > 100 µM (inactive) in each case. The GI50 in the test on SK-MEL-28, in the test with SK-MEL-5, with 786-0, with KM12, with OVCAR-3 and in the test with NCI-H23 was > 100 µM (inactive) each time. Moreover, the GI50 was > 100 µM (inactive) in the test on RXF 393; > 100 µM (inactive) with RPMI-8226; > 100 µM (inactive) in the test with SNB-75; > 100 µM (inactive) with SW-620; 33.8 µM (inactive) with T47D.
As to `Cc1c2c(n3c(nc4ccccc43)c1C#N)NCC2`, the GI50 in the test on HOP-92, with SNB-19, in the test with HT-29, with EKVX, with UACC-62 and in the test on SF-295 was > 10 µM (inactive) each time. For the same compound, the GI50 in the test with MDA-MB-435, with OVCAR-8, in the test on SK-MEL-28, in the test on SK-MEL-5, in the test with 786-0 and with KM12 was > 10 µM (inactive) throughout. The GI50 in the test with OVCAR-3, in the test with NCI-H23, in the test with RXF 393, in the test with RPMI-8226, in the test with SNB-75 and in the test with SW-620 was > 10 µM (inactive) in each case. Besides, the GI50 in the test on T47D is > 10 µM (inactive).
With `CCNC(=S)N/N=C(\C)c1cccc(C)n1`, the GI50 was 13.5 µM (inactive) with HOP-92; 30.3 µM (inactive) in the test on SNB-19; 3.09 µM (inactive) in the test on HT-29; 2.04 µM (inactive) in the test on EKVX; 15.4 µM (inactive) in the test on UACC-62; 26.9 µM (inactive) with SF-295. Moreover, the GI50 was 20.5 µM (inactive) with MDA-MB-435; 3.44 µM (inactive) in the test on OVCAR-8; 22.3 µM (inactive) with SK-MEL-28; 4.52 µM (inactive) in the test on SK-MEL-5; 12.8 µM (inactive) with 786-0; 20.3 µM (inactive) in the test on KM12. The GI50 was 0.897 µM (active) with NCI-H522; 0.299 µM (active) in the test with OVCAR-3; 23 µM (inactive) with NCI-H23; 45.3 µM (inactive) with RXF 393; 75.2 µM (inactive) in the test on SNB-75; 18.6 µM (inactive) in the test with SW-620. Besides, the GI50 with T47D is 0.643 µM (active).
Consider `Cc1ccc(C)c(COCCOCn2cc(Br)c(N)nc2=O)c1`, for which the GI50 in the test with HOP-92, in the test on SNB-19, in the test with EKVX, in the test with UACC-62, in the test on SF-295 and in the test with MDA-MB-435 was > 100 µM (inactive) in each case. In addition, the GI50 in the test with OVCAR-8, in the test with SK-MEL-28, with 786-0, in the test with KM12, in the test on NCI-H522 and in the test with OVCAR-3 was > 100 µM (inactive) in each case. For the same compound, the GI50 in the test on NCI-H23, in the test on RXF 393, with SNB-75, in the test with SW-620 and with T47D was > 100 µM (inactive) throughout.
As for `C=C(C)CCC(O)[C@](C)(O)[C@H]1[C@H](O)C[C@@]2(C)[C@@H]3CCc4c(cc(OC5OC(CO)C(O)C(O)C5O)c(O)c4C)C3(C)C(=O)C[C@]12C` (some centres undefined), the GI50 with HOP-92, in the test with SNB-19, in the test with HT-29, in the test with EKVX, in the test on UACC-62 and in the test on SF-295 was > 100 µM (inactive) each time. Besides, the GI50 was > 100 µM (inactive) in the test on MDA-MB-435; > 100 µM (inactive) in the test on OVCAR-8; > 100 µM (inactive) in the test on SK-MEL-28; > 10 µM (inactive) in the test on SK-MEL-5; > 100 µM (inactive) in the test on 786-0; > 100 µM (inactive) in the test on KM12. Besides, the GI50 with NCI-H522, with OVCAR-3, with NCI-H23, in the test with RXF 393, in the test on SNB-75 and with SW-620 was > 100 µM (inactive) each time. Besides, in the test on T47D, the GI50 is > 100 µM (inactive).
